In patent publication US6287813A, “Antibiotic-based gene regulation system” (Cistronics Cell Technology GmbH, priority 1999, dated 2001):

Target: T1, Pip/PPIR ON (Streptomyces coelicolor, UniProt Q9ADN3)
T1 sequence (Q9ADN3 1-252): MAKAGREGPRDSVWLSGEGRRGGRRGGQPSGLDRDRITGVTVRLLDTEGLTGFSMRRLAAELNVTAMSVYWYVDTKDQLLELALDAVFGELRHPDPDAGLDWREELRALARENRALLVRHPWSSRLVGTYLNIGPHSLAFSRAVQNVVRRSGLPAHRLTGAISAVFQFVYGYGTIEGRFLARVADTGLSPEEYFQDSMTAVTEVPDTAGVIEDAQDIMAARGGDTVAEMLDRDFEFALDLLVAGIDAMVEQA
Assay type: cell-based
Description: The Classical PIT/PPIR system belongs to the "OFF" family of regulation concepts since gene expression is activated upon withdrawal of the regulating antibiotic. However, in some applications such as gene therapy and tissue engineering an "ON" system which is induced upon addition of streptogramin antibiotics is more desirable. We therefore constructed a new Pip-based binary PION system which consists of a PPIR ON promoter and a set of two different transrepressors. PPIR ON consists of a PIR3 module containing 3 consecutive Pip binding elements (SEQ ID NO:21; Example 3) placed in front of the strong viral SV40 promoter. Transrepressors such as PIT3, which consists of a protein fusion between Pip and the KRAB silencing domain of the human kox-1 gene (Deuschle et al., 1995, Mol. Cell Biol. 15: 1907-1914) and PIT4, which is simply Pip expressed in a eukaryotic configuration, bind to PIR3 in front of PSV40 and block transcription of this promoter. Besides sterical transcription blocking the silencing domain of PIT3 can additionally downregulate PSV40 activity. […]
Table 9: Comparison of the regulation characteristics of the PipON systems. CHO-K1 cells were simultaneously cotransfected with the plasmids indicated and the SEAP readout (slope a of the p-nitrophenolphosphate-based light absorbance time courses) was determined in the presence and absence of pristinamycin 48 hr post transfection. […]
In order to assess the regulation potential of different streptogramin antibiotics, pMF225 or pMF150 encoding PIT4 were cotransfected with pMF208 (PPIR ON-SEAP) into CHO-K1 cells and the SEAP induction was measured 48 following transfection (as described above in Example 1) and addition of the following streptogramin antibiotics: (i) PI, the group B streptogramin component of pristinamycin; (ii) Pyostacin, the human oral antibiotic; (iii) Synercid, the first injectable semi-synthetic pristinamycin derivative effective against most multidrug resistant human pathogenic bacteria and (iv) virginiamycin used as growth promotant in livestock feed. […]

Substance: pristinamycin I [PI]
- SEAP readout (slope of the p-nitrophenolphosphate-based light absorbance time courses) (+PI (2 μg/ml) column, CHO + pMF208 + pMF225, 48 hr post transfection): 0.019 ± 0.002
- SEAP Production (slope of the p-nitrophenolphosphate-based light absorbance time courses) (CHO-K1 + pMF225 + pMF208, 2 μg/ml group B component, 48 hr post transfection): 0.65 ± 0.03
- Induction factor (PIT4-PPIR ON configuration (pMF225-pMF208)): 25
